Assay: Gravimetric Vapour Sorption (GVS)
Type: physicochemical
Method: Sorption isotherms were obtained using a SMS DVS Intrinsic moisture sorption analyser, controlled by SMS Analysis Suite software. The sample temperature was maintained at 25° C. by the instrument controls. The humidity was controlled by mixing streams of dry and wet nitrogen, with a total flow rate of 200 ml.min^−1. The relative humidity was measured by a calibrated Rotronic probe (dynamic range of 1.0-100% RH), located near the sample. The weight change, (mass relaxation) of the sample as a function of % RH was constantly monitored by the microbalance (accuracy ±0.005 mg). Typically 5-20 mg of sample was placed in a tared mesh stainless steel basket under ambient conditions. The sample was loaded and unloaded at 40% RH and 25° C. (typical room conditions). A moisture sorption isotherm was performed as outlined below (2 scans giving 1 complete cycle). The standard isotherm was performed at 25° C. at 10% RH intervals over a 0.5-90% RH range.
The hygroscopicity of the citrate was investigated by carrying out a gravimetric vapour sorption experiment on Batch 4. A sample of approximately 20 mg was held at 25° C. whilst the humidity of its environment was changed through two complete cycles. […] The sample takes longer to reach equilibrium in the early stages of the experiment. This may be due to displacement of residual solvent.

Gravimetric Vapour Sorption Max weight change: < 1%
Sorp Mass Change (Cycle 1 adsorption, Target RH 40.0%, 25° C.): −0.1186%
Sorp Mass Change (Cycle 1 adsorption, Target RH 50.0%, 25° C.): −0.0817%
Sorp Mass Change (Cycle 1 adsorption, Target RH 60.0%, 25° C.): 0.0329%
Sorp Mass Change (Cycle 1 adsorption, Target RH 70.0%, 25° C.): 0.1086%
Sorp Mass Change (Cycle 1 adsorption, Target RH 80.0%, 25° C.): 0.2342%
Sorp Mass Change (Cycle 1 adsorption, Target RH 90.0%, 25° C.): 0.5631%
Sorp Mass Change (Cycle 1 desorption, Target RH 0.0%, 25° C.): −0.2816%
Sorp Mass Change (Cycle 1 desorption, Target RH 10.0%, 25° C.): −0.2093%
Sorp Mass Change (Cycle 1 desorption, Target RH 20.0%, 25° C.): −0.1545%
Sorp Mass Change (Cycle 1 desorption, Target RH 30.0%, 25° C.): −0.1076%
Sorp Mass Change (Cycle 1 desorption, Target RH 40.0%, 25° C.): −0.0548%
Sorp Mass Change (Cycle 1 desorption, Target RH 50.0%, 25° C.): 0.0100%
Sorp Mass Change (Cycle 1 desorption, Target RH 60.0%, 25° C.): 0.0743%
Sorp Mass Change (Cycle 1 desorption, Target RH 70.0%, 25° C.): 0.1610%
Sorp Mass Change (Cycle 1 desorption, Target RH 80.0%, 25° C.): 0.2905%
Sorp Mass Change (Cycle 1 desorption, Target RH 90.0%, 25° C.): 0.5631%
Sorp Mass Change (Cycle 1 readsorption, Target RH 0.0%, 25° C.): −0.2816%
Sorp Mass Change (Cycle 1 readsorption, Target RH 10.0%, 25° C.): −0.2138%
Sorp Mass Change (Cycle 1 readsorption, Target RH 20.0%, 25° C.): −0.1620%
Sorp Mass Change (Cycle 1 readsorption, Target RH 30.0%, 25° C.): −0.1146%
Sorp Mass Change (Cycle 1 readsorption, Target RH 40.0%, 25° C.): −0.0643%
Sorp Mass Change (Cycle 2 desorption (first segment, RH 40 to 90), Target RH 40.0%, 25° C.): −0.0643%
Sorp Mass Change (Cycle 2 desorption (first segment, RH 40 to 90), Target RH 50.0%, 25° C.): −0.0100%
Sorp Mass Change (Cycle 2 desorption (first segment, RH 40 to 90), Target RH 60.0%, 25° C.): 0.0513%
Sorp Mass Change (Cycle 2 desorption (first segment, RH 40 to 90), Target RH 70.0%, 25° C.): 0.1281%
Sorp Mass Change (Cycle 2 desorption (first segment, RH 40 to 90), Target RH 80.0%, 25° C.): 0.2567%
Sorp Mass Change (Cycle 2 desorption (first segment, RH 40 to 90), Target RH 90.0%, 25° C.): 0.5397%
Sorp Mass Change (Cycle 2 desorption (second segment, RH 90 to 0), Target RH 0.0%, 25° C.): −0.2836%
Sorp Mass Change (Cycle 2 desorption (second segment, RH 90 to 0), Target RH 10.0%, 25° C.): −0.2093%
Sorp Mass Change (Cycle 2 desorption (second segment, RH 90 to 0), Target RH 20.0%, 25° C.): −0.1565%
Sorp Mass Change (Cycle 2 desorption (second segment, RH 90 to 0), Target RH 30.0%, 25° C.): −0.1032%
Sorp Mass Change (Cycle 2 desorption (second segment, RH 90 to 0), Target RH 40.0%, 25° C.): −0.0528%
Sorp Mass Change (Cycle 2 desorption (second segment, RH 90 to 0), Target RH 50.0%, 25° C.): 0.0045%
Sorp Mass Change (Cycle 2 desorption (second segment, RH 90 to 0), Target RH 60.0%, 25° C.): 0.0738%
Sorp Mass Change (Cycle 2 desorption (second segment, RH 90 to 0), Target RH 70.0%, 25° C.): 0.1535%
Sorp Mass Change (Cycle 2 desorption (second segment, RH 90 to 0), Target RH 80.0%, 25° C.): 0.2771%
Sorp Mass Change (Cycle 2 desorption (second segment, RH 90 to 0), Target RH 90.0%, 25° C.): 0.5397%
Sorp Mass Change (Cycle 2 readsorption, Target RH 0.0%, 25° C.): −0.2863%
Sorp Mass Change (Cycle 2 readsorption, Target RH 10.0%, 25° C.): −0.2168%
Sorp Mass Change (Cycle 2 readsorption, Target RH 20.0%, 25° C.): −0.1630%
Sorp Mass Change (Cycle 2 readsorption, Target RH 30.0%, 25° C.): −0.1116%
Sorp Mass Change (Cycle 2 readsorption, Target RH 40.0%, 25° C.): −0.0653%
water taken up (isotherm plot) (between 40% RH and 90% RH, 25° C.): < 0.6%
phase change after GVS experiment (XRPD) (sample retrieved at end of GVS): no overall phase change
SMILES: C1=C2COC/C=C/COCc3cc(ccc3OCCN3CCCC3)Nc3nccc(n3)C(=C1)O2 [Batch 4]

Source: patent US9062074B2, “(9E)-15-(2-pyrrolidin-1-yl-ethoxy)-7,12,25-trioxa-19,21,24-triaza-tetracyclo[18.3.1.1(2.5).1(14,18)]hexacosa-1(24),2,4,9,14,16,18(26),20,22-nonaene citrate salt” (CTI BioPharma Corp., priority 2009, dated 2015)
